Biological target: recombinant human His-ATG7 enzyme (Homo sapiens (Human), UniProt O95352)
Assay: ATG7 Enzyme Assay (HTRF/FRET, ATG3-GST and Flag-Gabarap)
Assay type: biochemical
Conditions: for inhibition at 0.111 µM: Concentration 0.111 μM; for inhibition at 0.111 µM / inhibition at 0.123 µM / inhibition at 0.069 µM: read-out: Percent Inhibition; for inhibition at 0.069 µM: Concentration 0.069 μM
Protocol: Example 97: ATG7 Enzyme Assay
The total volume of the ATG7 enzymatic assay is 50 μL and contains 50 mM HEPES Hemisodium (pH 7.5), 0.05% BSA, 0.01% Tween-20, 25 mM NaCl, 5 mM MgCl2, 10 μM ATP, 250 μM GSH, 5 nM ATG3-GST, 5 nM Flag-Gabarap, 100 μM TCEP and 0.15 nM recombinant human His-ATG7 enzyme. The enzymatic reaction mixture, with and without inhibitor, was incubated at 24° C. for 105 min in a 384-well plate before termination with […] of Stop/Detection buffer (0.1M HEPES Hemisodium pH 7.5, 0.05% Tween20, 20 mM EDTA, 410 mM KF, 0.53 nM Europium-Cryptate labeled monoclonal anti-Flag M2 Antibody (CisBio International) and 8.125 μg/ml PHYCOLINK goat anti-GST allophycocyanin (XL-APC) antibody (Prozyme)). After incubation for 2 hours at 24° C., quantification of FRET is performed on the Pherostar™ (BMG Labtech). Percentage inhibition values at a single concentration or enzyme inhibition (IC50) values are determined from those curves. One skilled in the art will appreciate that the values generated either as percentage inhibition at a single concentration or IC50 values are subject to experimental variation.

recombinant human His-ATG7 enzyme, sequence (O95352 whole entry): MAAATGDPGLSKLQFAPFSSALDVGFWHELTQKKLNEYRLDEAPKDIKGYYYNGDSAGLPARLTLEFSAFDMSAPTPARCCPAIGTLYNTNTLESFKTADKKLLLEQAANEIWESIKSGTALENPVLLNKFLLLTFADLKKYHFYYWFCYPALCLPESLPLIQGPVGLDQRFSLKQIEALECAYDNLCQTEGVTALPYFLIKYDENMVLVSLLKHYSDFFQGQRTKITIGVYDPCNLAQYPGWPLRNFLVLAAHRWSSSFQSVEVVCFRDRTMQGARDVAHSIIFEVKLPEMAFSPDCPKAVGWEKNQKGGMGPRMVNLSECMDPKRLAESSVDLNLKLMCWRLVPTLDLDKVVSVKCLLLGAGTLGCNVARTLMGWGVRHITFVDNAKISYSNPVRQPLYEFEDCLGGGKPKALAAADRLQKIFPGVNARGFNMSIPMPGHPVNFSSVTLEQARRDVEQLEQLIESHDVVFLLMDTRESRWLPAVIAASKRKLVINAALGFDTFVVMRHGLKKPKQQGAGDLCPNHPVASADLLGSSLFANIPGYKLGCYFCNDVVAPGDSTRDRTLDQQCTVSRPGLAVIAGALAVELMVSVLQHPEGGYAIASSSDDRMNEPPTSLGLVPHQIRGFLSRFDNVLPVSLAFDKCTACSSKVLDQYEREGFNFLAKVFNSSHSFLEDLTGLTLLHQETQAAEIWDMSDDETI

| IC50 [nM] | inhibition at 0.111 µM [%] | inhibition at 0.123 µM (Concentration 0.123 μM) [%] | inhibition at 0.069 µM [%] | Percent Inhibition (Concentration 0.123 μM) [%] | Compound |
| --- | --- | --- | --- | --- | --- |
| 50 to 100 | 61 |  |  |  | CCC(C)Sc1nn([C@@H]2O[C@H](COS(N)(=O)=O)[C@@H](O)[C@@H]2F)c2ncnc(N)c12 (single isomer, unassigned) [Compound I-136b] |
| 50 to 100 | 70 |  |  |  | Nc1ncnc2c1c(SC1CCC1)nn2[C@H]1C[C@H](O)[C@@H](COS(N)(=O)=O)O1 [Compound I-164, {(2R,3S,5R)-5-[4-amino-3-(cyclobutylsulfanyl)-1H-pyrazolo[3,4-d]pyrimidin-1-yl]-3-hydroxytetrahydrofuran-2-yl}methyl sulfamate] |
| 20 to 50 |  | 75 |  |  | Nc1ncnc2c1c(SC1CCCC1O)nn2[C@@H]1O[C@H](COS(N)(=O)=O)[C@@H](O)[C@H]1O (mixture of isomers) [Compound I-54, [(2R,3S,4R,5R)-5-(4-amino-3-{[(1R,2R)-2-hydroxycyclopentyl]sulfanyl}-1H-pyrazolo[3,4-d]pyrimidin-1-yl)-3,4-dihydroxytetrahydrofuran-2-yl]methyl Sulfamate and [(2R,3S,4R,5R)-5-(4-amino-3-{[(1S,2S)-2-hydroxycyclopentyl]sulfanyl}-1H-pyrazolo[3,4-d]pyrimidin-1-yl)-3,4-dihydroxytetrahydrofuran-2-yl]methyl Sulfamate] |
| > 500 |  |  | 10 |  | NCC#Cc1nn([C@@H]2O[C@H](COS(N)(=O)=O)[C@@H](O)[C@H]2O)c2ncnc(N)c12 [Compound I-17, {(2R,3S,4R,5R)-5-[4-amino-3-(3-aminoprop-1-yn-1-yl)-1H-pyrazolo[3,4-d]pyrimidin-1-yl]-3,4-dihydroxytetrahydrofuran-2-yl}methyl Sulfamate] |
| 100 to 500 |  |  | 31 |  | CCc1nn([C@@H]2O[C@H](COS(N)(=O)=O)[C@@H](O)[C@H]2O)c2ncnc(N)c12 [Compound I-6, [(2R,3S,4R,5R)-5-(4-amino-3-ethyl-1H-pyrazolo[3,4-d]pyrimidin-1-yl)-3,4-dihydroxytetrahydrofuran-2-yl]methyl Sulfamate] |
| 100 to 500 |  | 48 |  |  | Nc1ncnc2c1c(SC1CCCCC1O)nn2[C@@H]1O[C@H](COS(N)(=O)=O)[C@@H](O)[C@H]1O (mixture of isomers) [Compound I-47, [(2R,3S,4R,5R)-5-(4-amino-3-{[(1R,2R)-2-hydroxycyclohexyl]sulfanyl}-1H-pyrazolo[3,4-d]pyrimidin-1-yl)-3,4-dihydroxytetrahydrofuran-2-yl]methyl Sulfamate and [(2R,3S,4R,5R)-5-(4-amino-3-{[(1S,2S)-2-hydroxycyclohexyl]sulfanyl}-1H-pyrazolo[3,4-d]pyrimidin-1-yl)-3,4-dihydroxytetrahydrofuran-2-yl]methyl Sulfamate] |
| 100 to 500 |  | 41 |  |  | Nc1ncnc2c1c(OCCCl)nn2[C@@H]1O[C@H](COS(N)(=O)=O)[C@@H](O)[C@H]1O [Compound I-75, {(2R,3S,4R,5R)-5-[4-amino-3-(2-chloroethoxy)-1H-pyrazolo[3,4-d]pyrimidin-1-yl]-3,4-dihydroxytetrahydrofuran-2-yl}methyl Sulfamate] |
| 100 to 500 | 44 |  |  |  | Cn1ccnc1CSc1nn([C@@H]2O[C@H](COS(N)(=O)=O)[C@@H](O)[C@@H]2F)c2ncnc(N)c12 [Compound I-112, [(2R,3R,4S,5R)-5-(4-amino-3-{[(1-methyl-1H-imidazol-2-yl)methyl]sulfanyl}-1H-pyrazolo[3,4-d]pyrimidin-1-yl)-4-fluoro-3-hydroxytetrahydrofuran-2-yl]methyl sulfamate] |
| > 500 |  | 26 |  |  | N#CCc1nn([C@@H]2O[C@H](COS(N)(=O)=O)[C@@H](O)[C@H]2O)c2ncnc(N)c12 [Compound I-29, {(2R,3S,4R,5R)-5-[4-amino-3-(cyanomethyl)-1H-pyrazolo[3,4-d]pyrimidin-1-yl]-3,4-dihydroxytetrahydrofuran-2-yl}methyl Sulfamate] |
| 50 to 100 | 68 |  |  |  | Nc1ncnc2c1c(Sc1ccc(C(F)(F)F)cn1)nn2[C@@H]1O[C@H](COS(N)(=O)=O)[C@@H](O)[C@@H]1F [Compound I-143, [(2R,3R,4S,5R)-5-(4-amino-3-{[5-(trifluoromethyl)pyridin-2-yl]sulfanyl}-1H-pyrazolo[3,4-d]pyrimidin-1-yl)-4-fluoro-3-hydroxytetrahydrofuran-2-yl]methyl sulfamate] |
| > 500 |  |  |  | 19 | CC(O)c1nn([C@@H]2O[C@H](COS(N)(=O)=O)[C@@H](O)[C@H]2O)c2ncnc(N)c12 (single isomer, unassigned) [Compound I-23a, [(2R,3S,4R,5R)-5-{4-amino-3-[(1R)-1-hydroxyethyl]-1H-pyrazolo[3,4-d]pyrimidin-1-yl}-3,4-dihydroxytetrahydrofuran-2-yl]methyl sulfamate or [(2R,3S,4R,5R)-5-{4-amino-3-[(1S)-1-hydroxyethyl]-1H-pyrazolo[3,4-d]pyrimidin-1-yl}-3,4-dihydroxytetrahydrofuran-2-yl]methyl Sulfamate] |
| 100 to 500 | 39 |  |  |  | Nc1ncnc2c1c(Sc1cccc(Cl)c1)nn2[C@H]1C[C@H](O)[C@H](COS(N)(=O)=O)O1 [Compound I-224, [(2S,3S,5R)-5-{4-amino-3-[(3-chlorophenyl)sulfanyl]-1H-pyrazolo[3,4-d]pyrimidin-1-yl}-3-hydroxytetrahydrofuran-2-yl]methyl sulfamate] |
| < 20 |  | 87 |  |  | CC(C)Sc1nn([C@@H]2O[C@H](COS(N)(=O)=O)[C@@H](O)[C@H]2O)c2ncnc(N)c12 [Compound I-58, {(2R,3S,4R,5R)-5-[4-amino-3-(isopropylsulfanyl)-1H-pyrazolo[3,4-d]pyrimidin-1-yl]-3,4-dihydroxytetrahydrofuran-2-yl}methyl Sulfamate] |
| 100 to 500 |  | 50 |  |  | CC1OCCC1Sc1nn([C@@H]2O[C@H](COS(N)(=O)=O)[C@@H](O)[C@H]2O)c2ncnc(N)c12 (some centres unmarked) [Compound I-92] |
| 50 to 100 | 64 |  |  |  | Nc1ncnc2c1c(Sc1cccnc1)nn2[C@@H]1O[C@H](COS(N)(=O)=O)[C@@H](O)[C@@H]1F [Compound I-138, {(2R,3R,4S,5R)-5-[4-amino-3-(pyridin-3-ylsulfanyl)-1H-pyrazolo[3,4-d]pyrimidin-1-yl]-4-fluoro-3-hydroxytetrahydrofuran-2-yl}methyl sulfamate] |
| 50 to 100 | 64 |  |  |  | CC(C)Oc1ccc(Sc2nn([C@H]3C[C@H](O)[C@@H](COS(N)(=O)=O)O3)c3ncnc(N)c23)cc1 [Compound I-184, [(2R,3S,5R)-5-{4-amino-3-[(4-isopropoxyphenyl)sulfanyl]-1H-pyrazolo[3,4-d]pyrimidin-1-yl}-3-hydroxytetrahydrofuran-2-yl]methyl sulfamate] |
| 100 to 500 | 37 |  |  |  | N#CCSc1nn([C@H]2C[C@H](O)[C@@H](COS(N)(=O)=O)O2)c2ncnc(N)c12 [Compound I-188, [(2R,3S,5R)-5-{4-amino-3-[(cyanomethyl)sulfanyl]-1H-pyrazolo[3,4-d]pyrimidin-1-yl}-3-hydroxytetrahydrofuran-2-yl]methyl sulfamate] |
| 100 to 500 | 35 |  |  |  | Nc1ncnc2c1c(Sc1ccc3ccccc3c1)nn2[C@H]1C[C@H](O)[C@H](COS(N)(=O)=O)O1 [Compound I-210, {(2S,3S,5R)-5-[4-amino-3-(2-naphthylsulfanyl)-1H-pyrazolo[3,4-d]pyrimidin-1-yl]-3-hydroxytetrahydrofuran-2-yl}methyl Sulfamate] |
| 100 to 500 |  |  | 32 |  | Nc1ncnc2c1c(COCc1ccccc1)nn2[C@@H]1O[C@H](COS(N)(=O)=O)[C@@H](O)[C@H]1O [Compound I-4, [(2R,3S,4R,5R)-5-{4-amino-3-[(benzyloxy)methyl]-1H-pyrazolo[3,4-d]pyrimidin-1-yl}-3,4-dihydroxytetrahydrofuran-2-yl]methyl Sulfamate] |
| > 500 |  | 11 |  |  | CC(C)(O)c1nn([C@@H]2O[C@H](COS(N)(=O)=O)[C@@H](O)[C@H]2O)c2ncnc(N)c12 [Compound I-24, {(2R,3S,4R,5R)-5-[4-amino-3-(2-hydroxypropan-2-yl)-1H-pyrazolo[3,4-d]pyrimidin-1-yl]-3,4-dihydroxytetrahydrofuran-2-yl}methyl Sulfamate] |
| 20 to 50 | 71 |  |  |  | Nc1ncnc2c1c(Sc1ccc(F)cc1)nn2[C@@H]1O[C@H](COS(N)(=O)=O)[C@@H](O)[C@@H]1F [Compound I-126, [(2R,3R,4S,5R)-5-{4-amino-3-[(4-fluorophenyl)sulfanyl]-1H-pyrazolo[3,4-d]pyrimidin-1-yl}-4-fluoro-3-hydroxytetrahydrofuran-2-yl]methyl sulfamate] |
| 20 to 50 | 70 |  |  |  | CC(C)(C)Sc1nn([C@H]2C[C@H](O)[C@@H](COS(N)(=O)=O)O2)c2ncnc(N)c12 [Compound I-177, {(2R,3S,5R)-5-[4-amino-3-(tert-butylsulfanyl)-1H-pyrazolo[3,4-d]pyrimidin-1-yl]-3-hydroxytetrahydrofuran-2-yl}methyl sulfamate] |
